Measurements: paper PMC11249626, “Fluorophore-Labeled Pyrrolones Targeting the Intracellular Allosteric Binding Site of the Chemokine Receptor CCR1” (ACS Pharmacology & Translational Science, 2024)
Like-named read-outs stand apart in the source and are kept apart here. Each block holds one molecule with its values, some of them ahead of it.

Experiments:
CCR2 [1] = target: T1, CCR2 (Homo sapiens, UniProt P41597); design: method as in PMID 30256641; details: cited from earlier work
T1 construct: host or cells: HEK293T, transient
T1 sequence (P41597 1-360 isoform P41597-2): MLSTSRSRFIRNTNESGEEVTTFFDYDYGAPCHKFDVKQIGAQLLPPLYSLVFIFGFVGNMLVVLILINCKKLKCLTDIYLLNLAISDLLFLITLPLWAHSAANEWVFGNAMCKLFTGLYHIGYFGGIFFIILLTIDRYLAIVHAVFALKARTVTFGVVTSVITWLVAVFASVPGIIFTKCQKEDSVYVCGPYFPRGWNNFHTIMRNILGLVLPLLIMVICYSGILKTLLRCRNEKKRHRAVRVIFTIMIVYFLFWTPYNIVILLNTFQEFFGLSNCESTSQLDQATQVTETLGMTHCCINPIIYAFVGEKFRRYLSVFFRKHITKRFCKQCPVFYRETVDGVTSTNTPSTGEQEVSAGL

CCR1 [2] = target: T2, CCR1 (Homo sapiens, UniProt P32246); design: Promega pNLF1-C (Nluc) #CCR010TN00; host or cells: HEK293T, transient (PEI); method as in PMID 30256641; details: binding; cited from earlier work
T2 sequence (P32246 1-355): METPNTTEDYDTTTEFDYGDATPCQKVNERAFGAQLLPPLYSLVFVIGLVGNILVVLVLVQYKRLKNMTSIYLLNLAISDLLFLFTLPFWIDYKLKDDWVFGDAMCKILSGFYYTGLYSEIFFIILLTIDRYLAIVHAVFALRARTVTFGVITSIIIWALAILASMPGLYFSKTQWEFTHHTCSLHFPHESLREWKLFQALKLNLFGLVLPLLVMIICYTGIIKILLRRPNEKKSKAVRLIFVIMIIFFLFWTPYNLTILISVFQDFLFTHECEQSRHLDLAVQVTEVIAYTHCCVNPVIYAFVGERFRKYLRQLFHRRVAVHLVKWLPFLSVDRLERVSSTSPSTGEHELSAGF

CCR1 [3] = target: T2, CCR1; design: Promega pNLF1-C (Nluc) #CCR010TN00; host or cells: HEK293T, transient (PEI); method as in PMID 35838163; details: cited from earlier work
CCR2 [4] = target: T1, CCR2; design: method as in PMID 35838163; details: membrane-based setup; cited from earlier work
CCR2 [5] = target: T1, CCR2; design: method as in PMID 35838163; details: cellular setup; cited from earlier work
CCR1 [6] = target: T2, CCR1; test: Membrane-based NanoBRET competition assay with 12 (2000 nM) and CCR1_Nluc membranes; format: binding; design: Promega pNLF1-C (Nluc) #CCR010TN00; host or cells: HEK293T, transient (PEI); details: 12 (2000 nM)
CCR9 = target: T3, CCR9 (Homo sapiens, UniProt P51686); test: NanoBRET-based assay for binding to the IABS of CCR9, as previously reported; details: compound at 20 μM; read-out: % inh. of tracer binding, CCR9
T3 construct: host or cells: HEK293T, transient
T3 sequence (P51686 1-369): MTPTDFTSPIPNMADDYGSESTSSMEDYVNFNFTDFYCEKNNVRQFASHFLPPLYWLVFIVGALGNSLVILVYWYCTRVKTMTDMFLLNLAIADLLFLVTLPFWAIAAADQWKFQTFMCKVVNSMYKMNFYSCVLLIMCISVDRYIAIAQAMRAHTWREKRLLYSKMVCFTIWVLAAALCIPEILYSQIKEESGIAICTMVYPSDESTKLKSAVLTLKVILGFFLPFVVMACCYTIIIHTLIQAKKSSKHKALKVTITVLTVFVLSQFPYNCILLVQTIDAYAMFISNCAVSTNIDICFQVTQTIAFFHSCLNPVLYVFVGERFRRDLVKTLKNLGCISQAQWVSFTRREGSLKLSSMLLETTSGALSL
Source text: (§1) With 6 (Figure 1), a first lead structure for intracellular CCR1 inhibition that features an approximately 20-fold CCR1 over CCR2 selectivity was previously discovered by Ortiz Zacarías et al.([33]) In order to discover new chemotypes for selective CCR1 over CCR2 inhibition, we aimed to apply our novel NanoBRET competition binding assay for CCR1 in combination with our recently published CCR2 competition binding assay based on 7.[47] In our first attempt, we screened a small in-house library enriched with intracellular GPCR ligands and structural analogues thereof. […] Additionally, we tested 23 for binding to the IABS of CCR9 and CXCR2 using our recently reported NanoBRET-based assay platform (Figure 6C).[44],[45] In the course of these studies, we detected no binding of 23 to CCR9 and CXCR2 up to a concentration of 20 μM. Since cell lineage-dependent effects have been observed for CCR1 antagonists,[59] we studied the CCR1 over CCR2 selectivity of 23 by using a previously reported radioligand binding assay with membrane preparations from osteosarcoma (U2OS) cells stably expressing human CCR1 or CCR2.[33] […] In agreement with these previous reports,[33] we observed a reduction in CCR1 over CCR2 selectivity when moving from membrane-based binding assays to cell-based functional assays. […]

CXCR2 = target: T4, CXCR2 (Homo sapiens, UniProt P25025); test: NanoBRET-based assay for binding to the IABS of CXCR2, as previously reported; details: compound at 20 μM; read-out: % inh. of tracer binding, CXCR2
T4 construct: host or cells: HEK293T, transient
T4 sequence (P25025 1-360): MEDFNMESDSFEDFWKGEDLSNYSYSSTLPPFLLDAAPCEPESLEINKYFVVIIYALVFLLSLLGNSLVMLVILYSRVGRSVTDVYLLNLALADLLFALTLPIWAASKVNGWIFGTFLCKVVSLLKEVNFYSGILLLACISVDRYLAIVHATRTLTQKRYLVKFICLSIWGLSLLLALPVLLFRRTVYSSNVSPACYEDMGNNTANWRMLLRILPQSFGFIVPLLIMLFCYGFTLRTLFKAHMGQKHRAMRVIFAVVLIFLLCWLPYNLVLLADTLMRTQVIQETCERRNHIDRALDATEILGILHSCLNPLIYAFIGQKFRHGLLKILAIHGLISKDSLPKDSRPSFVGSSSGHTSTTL
Source text: as §1

CCR2 [7] = target: T1, CCR2; test: NanoBRET competition binding assay for CCR2 based on 7, as previously reported; details: compound at 100 μM; read-out: % inh. of tracer binding, CCR2
Source text: With 6 (Figure 1), a first lead structure for intracellular CCR1 inhibition that features an approximately 20-fold CCR1 over CCR2 selectivity was previously discovered by Ortiz Zacarías et al.([33]) In order to discover new chemotypes for selective CCR1 over CCR2 inhibition, we aimed to apply our novel NanoBRET competition binding assay for CCR1 in combination with our recently published CCR2 competition binding assay based on 7.[47] In our first attempt, we screened a small in-house library enriched with intracellular GPCR ligands and structural analogues thereof. […] Additionally, we tested 23 for binding to the IABS of CCR9 and CXCR2 using our recently reported NanoBRET-based assay platform (Figure 6C).[44],[45] In the course of these studies, we detected no binding of 23 to CCR9 and CXCR2 up to a concentration of 20 μM. Since cell lineage-dependent effects have been observed for CCR1 antagonists,[59] we studied the CCR1 over CCR2 selectivity of 23 by using a previously reported radioligand binding assay with membrane preparations from osteosarcoma (U2OS) cells stably expressing human CCR1 or CCR2.[33] […] In agreement with these previous reports,[33] we observed a reduction in CCR1 over CCR2 selectivity when moving from membrane-based binding assays to cell-based functional assays. […] To investigate a potential signaling bias of 23, we tested the compound by means of a NanoBiT miniGi recruitment assay.[60] […] Thus, this indicated no strong signaling bias of 23 (Figures S9E and S10C). To elucidate the SAR of this new scaffold for selective CCR1 over CCR2 inhibition, we synthesized several analogues of 23 (24–40) and tested them by means of our NanoBRET competition binding assays (Schemes S2 and S3, Table 1, Figures 6F and S11). First, we aimed to examine the impact of the stereochemistry of 23 on CCR1 affinity. As for the structurally related pyrrolone 4, large differences in CCR2 affinity between the eutomer 4-[R] and the distomer 4-[S] were described.[61] […] Furthermore, we identified the 4-hydroxyphenethyl group at position 1 of the pyrrolone scaffold as highly important for CCR1 affinity and selectivity. Its presence seems to block CCR2 binding, also when combined with the structural features of the high-affinity CCR2 ligand 5, as exemplified by 24. Especially the 4-hydroxy group at this moiety is essential for CCR1 binding (see 25 and 26). […] In position 5 of the pyrrolone, several aromatic and aliphatic substituents were tolerated (see 31–35).

CCR1 [8] = target: T2, CCR1; test: Live cell NanoBRET binding assay, HEK293T cells expressing CCR1_Nluc; design: Promega pNLF1-C (Nluc) #CCR010TN00; host or cells: HEK293T, transient (PEI); details: 12 (1000 nM), live HEK293T cells; read-out: Ki, live cells

Compound: O=C(C1=C(O)C(=O)N(c2ccc(Br)cc2F)C1c1cccc(Br)c1)C1CC1 (centres unmarked) [compound 6]
CCR2, % @ 1 μM (CCR2 [1]): 45%
CCR1 over CCR2 selectivity (CCR1 [2]): approximately 20 fold

Compound: CN(C)c1ccc2c(-c3cc(C(=O)NCCOCCOCCn4cc(CNC(=O)c5ccc(Oc6ncc(Cl)cc6NS(=O)(=O)c6ccc(Cl)c(C(F)(F)F)c6)cc5)nn4)ccc3C(=O)[O-])c3ccc(=[N+](C)C)cc-3oc2c1 [compound 7]
KD(CCR1) / binding to CCR1 (CCR1 [3]): no relevant binding
Kd (CCR2 [4]): 266 nM
Kd (CCR2 [5]): 114 nM

Ki (CCR1 [6]; CCR1_Nluc membranes, read-out: Ki, CCR1 (converted)): 357 nM
% inh. of tracer binding, CCR1 (CCR1 [6]; compound at 20 μM): ≥ 50%
inhibition at 20 µM (CCR9): 15%
inhibition at 20 µM (CXCR2): 2%
inhibition at 100 µM (CCR2 [7]): 29%
Ki (CCR1 [8]): 1290 nM
Compound: NC(=O)CSc1nnc(-c2ccc(Cl)cc2)n1C1CCCCC1 [compound 43]
